Values quoted from earlier work, collected in US20100136096A1, “Systems for modulating inflammation” (Searete LLC, a limited liability corporation of the State …, priority 2008, published 2010).

What was measured:
[1] = tested on: Src family kinase; conditions: Sanjuan et al. 2006
[2] = tested on: lethal septic shock; conditions: mice; Nakamura et al. 2007
[3] = single agent, 400 mg infused over one hour; Looareesuwan et al. 1986
[4] = tested on: proteasomal activity; conditions: cultured breast cancer cells; disulfiram bound to copper; Chen et al. 2006
[5] = tested on: aldehyde dehydrogenase
[6] = tested on: Src family kinases (Src, Lck, Yes, Fyn); conditions: at nanomolar concentrations

Structure (SMILES): CCN(CC)CCCC(C)Nc1ccnc2cc(Cl)ccc12 (stereo not drawn) [Chloroquine]
- inhibition of CpG-induced Src family kinase activation, or its dependent cellular responses [1]: does not inhibit

Structure (SMILES): Cl.Cl.Nc1ccccc1Oc1ccc2c(N)nsc2c1 [Example M62812, 3-amino-6-(2-aminophenoxy)-1,2-benzisothiazole dihydrochloride]
- prevention of lethal septic shock [2]: prevents lethal septic shock

Structure (SMILES): CCN(CC)CCCC(C)Nc1ccnc2cc(Cl)ccc12.O=P(O)(O)O.O=P(O)(O)O (stereo not drawn) [chloroquine phosphate, 7-chloro-4-[[4-(diethylamino)-1-methylbutyl]amino]quinoline phosphate (1:2)]
- tolerability of intravenous infusion [3]: without complication

Structure (SMILES): CCN(CC)C(=S)SSC(=S)N(CC)CC [disulfiram, 1-(diethylthiocarbamoyldisulfanyl)-N,N-diethyl-methanethioamide]
- proteasomal activity [4]: inhibits proteasomal activity
- inhibition of aldehyde dehydrogenase [5]: inhibits aldehyde dehydrogenase without toxicity

Structure (SMILES): Cc1nc(Nc2ncc(C(=O)Nc3c(C)cccc3Cl)s2)cc(N2CCN(CCO)CC2)n1.O [dasatinib, N-(2-chloro-6-methylphenyl)-2-[[6-[4-(2-hydroxyethyl)-1-piperazinyl]-2-methyl-4-pyrimidinyl]amino]-5-thiazolecarboxamide, monohydrate]
- inhibition of Src family kinases (Src, Lck, Yes, Fyn) [6]: inhibits
